Patent publication US20250302795A1, “SMALL MOLECULE COMPOUNDS WITH NEGATIVE REGULATORY EFFECTS ON Nrf2 SIGNALING [sequence] AND THEIR POTENTIAL APPLICATIONS” (Beijing Hebabiz Biotechnology Co., Inc., priority 2022, published 2025)

Experiments:
Format in all cases: in vivo, rat
[1] = Body weight of rats, high-fat diet non-alcoholic steatohepatitis model; settings: positive control group, in g (unit assumed)
Experimental: (§1) The normal control group was fed a standard diet for twelve weeks while the other groups were fed a high-fat diet consisting of 88% basal diet+10% lard+2% cholesterol for twelve weeks. After establishing the model, the drug groups received their respective treatments at a dosage of 10 ml/kg while the normal and model groups received an equal volume of 0.5% CMC-Na solution. The rats were provided with ad libitum access to water and food, while the animal chamber was maintained under controlled conditions of quietness, natural lighting, a temperature of 25±0.5° C., and a humidity level of 55±5%. The rats' body weights were measured once per week and recorded.
The rats were weighed weekly to monitor the fluctuations in body weight within each experimental group.

[2] = test system: rats with non-alcoholic steatohepatitis induced by high-fat diet; assay: Liver indices, non-alcoholic steatohepatitis model induced by high-fat diet
Experimental: as §1
(3) Liver indices was determined by dividing the wet weight of the liver by the body weight of rats and multiplying by 100%, after liver tissue was isolated, washed with normal saline, dried using filter paper, and weighed following blood sampling from the abdominal aorta. (4) HE staining and oil red staining were performed on liver tissue samples obtained from the abdominal aorta of rats. The tissue was fixed in 10% neutral formalin, followed by embedding, slicing, dewaxing, staining, transparency treatment, and sealing using routine procedures. Microscopic examination was conducted to observe the pathological changes in rat liver tissues across different groups. Additionally, the NASH-CRN scoring system was employed to assess NAS scores. (5) Detection of Proteins Associated with Non-Alcoholic Steatohepatitis

[3] = Body weight of rats, high-fat diet + CCl4 non-alcoholic steatohepatitis model; settings: positive control group, in g (unit assumed)
Experimental: (§2) The normal control group were fed a standard diet while the other groups were exclusively fed a high-fat diet consisting of 88% basal diet +10% lard +2% cholesterol for the initial six weeks. Starting from the seventh week, they received subcutaneous injections of a 30% CCl4 olive oil solution at a dosage of 0.2 ml/100 g behind their back twice per week for a total of four times. Once the model was successfully replicated, the corresponding drugs were administered orally (10 ml/kg) in each treatment group, and both the normal control group and the model group received equal volumes of a 0.5% CMC-Na solution once daily for ten consecutive weeks. Throughout the experimental period, the rats were provided with ad libitum access to food and water, while the animal chamber was maintained under controlled conditions of quietness, natural lighting, a temperature of 25±0.5° C., and a humidity level of 55±5%. The rats' body weights were measured once per week and recorded.
The weight changes of rats in each group were compared by conducting weekly weigh-ins after the experiment.

[4] = test system: rats with nonalcoholic steatohepatitis induced by a high-fat diet and CCl4; assay: Liver indices, non-alcoholic steatohepatitis model induced by high-fat diet and CCl4; settings: positive control group
Experimental: as §2
After blood sampling from the abdominal aorta of rats, the liver tissue was isolated, rinsed with normal saline solution, dried using filter paper, weighed accurately, and subsequently calculated the Liver indices: Liver indices=wet liver weight/body weight×100%.

[5] = test system: rats with nonalcoholic steatohepatitis induced by a high-fat diet and CCl4; assay: Serum biochemical indices, high-fat diet and CCl4 model; settings: end of tenth week of administration, positive control group
Experimental: as §2, with “Starting” for “The normal control group were fed a standard diet while the other groups were exclusively fed a high-fat diet consisting of 88% basal diet +10% lard +2% cholesterol for the initial six weeks. Starting”
(§3) At the end of the tenth week of administration, all rats underwent a 16-hour fasting period following their final administration and were intraperitoneally injected with a 20% ulinastatin solution (10 ml/kg) for anesthesia. Subsequently, blood samples were collected from the abdominal aorta and allowed to stand for one hour, and then centrifuged at 4° C. for fifteen minutes at a speed of 3000 r/min. Finally, the upper serum was stored at −80° C. Following the instructions provided with the biochemical index detection kit, levels of HDL-C, LDL-C, NEFA, AST, ALT, UA, TC, TG, PCIII, IV-C LN and HA in rat serum were determined.
According to the kit instructions, the concentration of fasting plasma glucose (FPG) in serum was determined using colorimetry, while the concentration of fasting insulin (FINS) in serum was measured through radioimmunoassay.

[6] = test system: rats with nonalcoholic steatohepatitis induced by a high-fat diet and CCl4; assay: Four indices of serum hepatic fibrosis, high-fat diet and CCl4 model; settings: positive control group
Experimental: as §2, with “Starting” for “The normal control group were fed a standard diet while the other groups were exclusively fed a high-fat diet consisting of 88% basal diet +10% lard +2% cholesterol for the initial six weeks. Starting”
as §3

[7] = test system: rats with nonalcoholic steatohepatitis induced by a high-fat diet and CCl4; assay: Liver histopathology (HE, oil red, Masson staining), high-fat diet and CCl4 model; settings: positive control groups and NR218 high-, medium-, low-dose groups
Experimental: as §2
After collecting blood samples from the abdominal aorta of rats, the liver tissue was isolated and fixed in a 10% neutral formalin solution. Following standard procedures for embedding, sectioning, dewaxing, staining, clearing, and sealing, the liver tissues were subjected to HE (hematoxylin-eosin), Masson's trichrome, and oil red staining techniques respectively. […]

Which results are given for `CC[C@H](C)C(=O)O[C@H]1C[C@@H](C)C=C2C=C[C@H](C)[C@H](CC[C@@H]3C[C@@H](O)CC(=O)O3)[C@H]21` [Lovastatin]?
body weight ([1]; week 0 (pre-administration)): 196.21 ± 4.57; body weight ([1]; week 1 (pre-administration)): 258.64 ± 9.56; body weight ([1]; week 2 (pre-administration)): 315.91 ± 19.58; body weight ([1]; week 3 (pre-administration)): 356.16 ± 26.94; body weight ([1]; week 4 (pre-administration)): 392.60 ± 32.93; body weight ([1]; week 5 (pre-administration)): 432.81 ± 38.14; body weight ([1]; week 6 (pre-administration)): 464.35 ± 45.01; body weight ([1]; week 7 (pre-administration)): 482.88 ± 44.36; body weight ([1]; week 8 (pre-administration)): 503.37 ± 45.95; body weight ([1]; week 9 (pre-administration)): 530.26 ± 48.68; body weight ([1]; week 10 (pre-administration)): 548.47 ± 45.65; body weight ([1]; week 11 (pre-administration)): 547.23 ± 54.49; body weight ([1]; week 12 (pre-administration)): 543.06 ± 66.86; body weight ([1]; week 13): 534.63 ± 62.63; body weight ([1]; week 14): 542.19 ± 52.03; body weight ([1]; week 15): 543.36 ± 47.44; body weight ([1]; week 16): 547.25 ± 37.26; body weight ([1]; week 17): 561.64 ± 53.62; body weight ([1]; week 18): 593.39 ± 48.55; body weight ([1]; week 19): 615.74 ± 52.23; body weight ([1]; week 20): 600.22 ± 50.84; liver indices versus model group (in words) ([2]; NR218 at high, medium and low doses, P<0.01 or P<0.05): significant decrease compared to the model group; Liver Indices ([2]; high-fat diet model, positive control group): 3.23 ± 0.56 %; body weight ([3]; week 1): 195.70 ± 6.24; body weight ([3]; week 2): 253.01 ± 9.37; body weight ([3]; week 3): 315.37 ± 15.71; body weight ([3]; week 4): 368.78 ± 19.25; body weight ([3]; week 5): 409.85 ± 24.64; body weight ([3]; week 6): 439.81 ± 28.73; body weight ([3]; week 7): 470.75 ± 34.51; body weight ([3]; week 8): 491.21 ± 35.35; body weight ([3]; week 9): 491.46 ± 34.37; body weight ([3]; week 10): 503.05 ± 37.51; body weight ([3]; week 11): 486.62 ± 44.00; body weight ([3]; week 12): 506.22 ± 46.50; body weight ([3]; week 13): 530.00 ± 54.43; body weight ([3]; week 14): 531.16 ± 48.26; body weight ([3]; week 15): 525.60 ± 53.49; body weight ([3]; week 16): 539.63 ± 46.78; body weight ([3]; week 17): 555.78 ± 49.24; body weight ([3]; week 18): 561.12 ± 51.49; Liver Indices [4]: 3.56 ± 0.49%; HOMA-IR ([5]; FPG x FINS/22.5): 5.50; ALT ([5]; serum): 43.66 U/L; AST ([5]; serum): 69.18 U/L; HDL-C ([5]; serum): 1.31 mmol/L; LDL-C ([5]; serum): 1.20 mmol/L; NEFA ([5]; serum): 0.76 mmol/L; IV-C [6]: 15.59 ± 7.47 µg/L; PC-III [6]: 10.52 ± 2.34 µg/L; Oil red O staining of liver tissue (in words) [7]: significantly ameliorated steatosis severity and reduced lipid droplet content
